Source: patent US4192871A, “Chemical compounds” (Glaxo Laboratories Limited, priority 1976, dated 1980)

Legend:
[1] = dissolution of the 11β-aminoester salts in aqueous acid (Table 5 and Examples 101, 225-229); type: physicochemical
Summary of the method: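 11β-Aminoester free base combined with 1 molar part of acid (citric acid as monohydrate) in water, with extra acid or prior ethanol co-evaporation in some methods. Solution made up to set weight, undissolved base collected and weighed to calculate dissolved amount. Solution pH measured.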

[2] = pH of the salt solutions; type: physicochemical; settings: aqueous solution of the salt, Table 5
Summary of the method: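 Aminoester free base mixed with 1 molar part acid in water, stirred or shaken, with extra acid or ethanol evaporation in some methods, then made up with water to set weight. Undissolved base collected and weighed to calculate dissolved base; solution membrane-filtered and pH measured.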

[3] = method A: clear solution, 1 molar part acid, made up with water to WT. of solution 10 g, except Ex. 121 and 150: 12, 123: 12.3, 124: 7.5, 129: 10.3, 135 and 139: 8.95, 164: 10.35, 170: 10.4, 181: 10.04, 187: 9.5, 210: 10.2, 221: 15 g
[4] = method C: ethanol evaporated, residue in water, undissolved material weighed, WT. of solution Ex. 118: 10, 120: 10.4, 148: 9.54, 152: 5.6, 154: 9.1, 155: 8.77, 156: 9.06, 157: 9.5, 158: 9.38, 159: 9.17, 179: 9.65, 180: 11.7, 182: 4.9, 202: 12.05, 213: 12, 214: 11.5, 215: 11.1, 216: 11.6, 217: 12.1 g
[5] = method B: further acid added, undissolved material weighed, WT. of solution 10 g, except Ex. 130 and 141: 9.2, 142: 9.23, 143, 144, 189 and 199: 9.8, 149: 10.6, 153: 7.9, 162 and 188: 9.5, 163: 68, 166: 10.4, 168: 10.7, 169: 10.9, 183: 8.05, 184 and 201: 9.83, 185: 7.1, 186: 9.3, 192: 10.07, 193: 6.4, 195: 6.8, 196: 7, 197: 7.2, 200: 10.1, 206: 15 g
[6] = method D: 1 molar part acid, undissolved material weighed, WT. of solution 10 g, except Ex. 136: 8.95, 140: 9.52, 165 and 167: 10.1, 190 and 198: 9.8, 191: 8.9, 194: 6.6, 204: 10.09, 219: 10.6 g
[7] = method E: as C with further acid, WT. of solution Ex. 160: 6.12, 161: 7.8, 203: 12.7, 212: 12.125, 220: 10 g

| SMILES | pH [2] | Dissolved aminoester [1, 5] [mg] | further results |
| --- | --- | --- | --- |
| CC(=O)[C@H]1CC[C@H]2[C@@H]3CC[C@H]4C[C@H](O)CC[C@]4(C)[C@H]3[C@@H](OC(=O)CCCN3CCC(C)CC3)C[C@]12C [Example 181] | 3.72 | – | Dissolved aminoester [1, 3]: 101 mg |
| CCCCN(C)C(C)C(=O)O[C@H]1C[C@]2(C)[C@@H](C(C)=O)CC[C@H]2[C@@H]2CC[C@H]3C[C@H](O)CC[C@]3(C)[C@H]21 (some centres unmarked) [Example 182] | 3.43 | – | Dissolved aminoester [1, 4]: 49 mg |
| CC(=O)[C@H]1CC[C@H]2[C@@H]3CC[C@H]4C[C@H](O)CC[C@]4(C)[C@H]3[C@@H](OC(=O)CN(C)C(C)C)C[C@]12C [Example 183] | 2.69 | 57.5 | – |
| CCC(C)N(C)CC(=O)O[C@H]1C[C@]2(C)[C@@H](C(C)=O)CC[C@H]2[C@@H]2CC[C@H]3C[C@H](O)CC[C@]3(C)[C@H]21 (some centres unmarked) [Example 184] | 3.0 | 94.5 | – |
| CCCCCN(C)CC(=O)O[C@H]1C[C@]2(C)[C@@H](C(C)=O)CC[C@H]2[C@@H]2CC[C@H]3C[C@H](O)CC[C@]3(C)[C@H]21 [Example 185] | 2.86 | 65.3 | – |
| CCC(C)CN(C)CC(=O)O[C@H]1C[C@]2(C)[C@@H](C(C)=O)CC[C@H]2[C@@H]2CC[C@H]3C[C@H](O)CC[C@]3(C)[C@H]21 (some centres unmarked) [Example 186] | 2.85 | 75 | – |
| CCCC(C)N(C)CC(=O)O[C@H]1C[C@]2(C)[C@@H](C(C)=O)CC[C@H]2[C@@H]2CC[C@H]3C[C@H](O)CC[C@]3(C)[C@H]21 (some centres unmarked) [Example 187] | 3.63 | – | Dissolved aminoester [1, 3]: 95 mg |
| CC(=O)[C@H]1CC[C@H]2[C@@H]3CC[C@H]4C[C@H](O)CC[C@]4(C)[C@H]3[C@@H](OC(=O)CN(C)CC(C)(C)C)C[C@]12C [Example 188] | 2.58 | 31 | – |
| CCCCCCN(C)CC(=O)O[C@H]1C[C@]2(C)[C@@H](C(C)=O)CC[C@H]2[C@@H]2CC[C@H]3C[C@H](O)CC[C@]3(C)[C@H]21 [Example 189] | 2.98 | 93 | – |
| CC(=O)[C@H]1CC[C@H]2[C@@H]3CC[C@H]4C[C@H](O)CC[C@]4(C)[C@H]3[C@@H](OC(=O)CN(C)C(C)CC(C)C)C[C@]12C (some centres unmarked) [Example 190] | 3.43 | – | Dissolved aminoester [1, 6]: 86 mg |
| C=CCN(C)CC(=O)O[C@H]1C[C@]2(C)[C@@H](C(C)=O)CC[C@H]2[C@@H]2CC[C@H]3C[C@H](O)CC[C@]3(C)[C@H]21 [Example 191] | 3.20 | – | Dissolved aminoester [1, 6]: 86.1 mg |
| CC(=O)[C@H]1CC[C@H]2[C@@H]3CC[C@H]4C[C@H](O)CC[C@]4(C)[C@H]3[C@@H](OC(=O)CN(C)C(C)CCC(C)C)C[C@]12C (some centres unmarked) [Example 192] | 3.00 | 100.7 | – |
| CC(=O)[C@H]1CC[C@H]2[C@@H]3CC[C@H]4C[C@H](O)CC[C@]4(C)[C@H]3[C@@H](OC(=O)CN(C)C3CC3)C[C@]12C [Example 193] | 2.46 | 23 | – |
| CCN(CC(=O)O[C@H]1C[C@]2(C)[C@@H](C(C)=O)CC[C@H]2[C@@H]2CC[C@H]3C[C@H](O)CC[C@]3(C)[C@H]21)C(C)C [Example 194] | 3.56 | – | Dissolved aminoester [1, 6]: 57 mg |
| CCN(CC(=O)O[C@H]1C[C@]2(C)[C@@H](C(C)=O)CC[C@H]2[C@@H]2CC[C@H]3C[C@H](O)CC[C@]3(C)[C@H]21)CC(C)C [Example 195] | 2.98 | 59 | – |
| CCC(C)CN(CC)CC(=O)O[C@H]1C[C@]2(C)[C@@H](C(C)=O)CC[C@H]2[C@@H]2CC[C@H]3C[C@H](O)CC[C@]3(C)[C@H]21 (some centres unmarked) [Example 196] | 2.53 | 39 | – |
| CCN(CC(=O)O[C@H]1C[C@]2(C)[C@@H](C(C)=O)CC[C@H]2[C@@H]2CC[C@H]3C[C@H](O)CC[C@]3(C)[C@H]21)C(C)CC(C)C (some centres unmarked) [Example 197] | 2.99 | 63 | – |
| CC(=O)[C@H]1CC[C@H]2[C@@H]3CC[C@H]4C[C@H](O)CC[C@]4(C)[C@H]3[C@@H](OC(=O)CN(C)[C@H](C)CC(C)C)C[C@]12C [Example 198] | 3.62 | – | Dissolved aminoester [1, 6]: 90 mg |
| CC(=O)[C@H]1CC[C@H]2[C@@H]3CC[C@H]4C[C@H](O)CC[C@]4(C)[C@H]3[C@@H](OC(=O)CN(C)[C@@H](C)CC(C)C)C[C@]12C [Example 199] | 3.12 | 88 | – |

| SMILES | pH [2] | Dissolved aminoester [1, 5] [mg] | further results |
| --- | --- | --- | --- |
| CC(=O)[C@H]1CC[C@H]2[C@@H]3CC[C@H]4C[C@H](O)CC[C@]4(C)[C@H]3[C@@H](OC(=O)CCN(C)C(C)CC(C)C)C[C@]12C (some centres unmarked) [Example 200] | 3.2 | 83 | – |
| CC(=O)[C@H]1CC[C@H]2[C@@H]3CC[C@H]4C[C@H](O)CC[C@]4(C)[C@H]3[C@@H](OC(=O)CN(C)C(C)(C)C)C[C@]12C [Example 201] | 3.12 | 98.3 | – |
| CCN(CC)CC(=O)O[C@H]1C[C@]2(C)[C@@H](C(C)=O)CC[C@H]2[C@@H]2CC[C@H]3C[C@H](O)[C@@H](Cl)C[C@]3(C)[C@H]21 [Example 202] | 3.65 | – | Dissolved aminoester [1, 4]: 120.5 mg |
| CC(=O)[C@H]1CC[C@H]2[C@@H]3CC[C@H]4C[C@H](O)[C@@H](Cl)C[C@]4(C)[C@H]3[C@@H](OC(=O)CN3CCC(C)CC3)C[C@]12C [Example 203] | 2.85 | – | Dissolved aminoester [1, 7]: 127 mg |
| CCN(CC)CC(=O)O[C@H]1C[C@]2(C)[C@@H](C(C)=O)CC[C@H]2[C@@H]2CC[C@H]3C[C@H](O)[C@@H](SC#N)C[C@]3(C)[C@H]21 [Example 204] | 3.5 | – | Dissolved aminoester [1, 6]: 88.7 mg |
| CCCCN(C)CC(=O)O[C@H]1C[C@]2(C)[C@@H](C#N)CC[C@H]2[C@@H]2CC[C@H]3C[C@H](O)CC[C@]3(C)[C@H]21 [Example 205] | 3.4 | – | Dissolved aminoester [1, 6]: 97 mg |
| CCCN(CCC)CC(=O)O[C@H]1C[C@]2(C)[C@@H](C#N)CC[C@H]2[C@@H]2CC[C@H]3C[C@H](O)CC[C@]3(C)[C@H]21 [Example 206] | 2.7 | 84 | – |
| CCCCN(C)CC(=O)O[C@H]1C[C@]2(C)[C@@H](C(C)=O)CC[C@H]2[C@@H]2CC[C@H]3C[C@H](O)[C@@H](Br)C[C@]3(C)[C@H]21 [Example 207] | 2.6 | 59 | – |
| CCN(CC)CC(=O)O[C@H]1C[C@]2(C)[C@@H](C(C)=O)CC[C@H]2[C@@H]2CC[C@H]3C[C@H](O)[C@@H](Br)C[C@]3(C)[C@H]21 [Example 208] | 2.6 | 65 | – |
| CCCN(CCC)CC(=O)O[C@H]1C[C@]2(C)[C@@H](C(=O)COC(C)=O)CC[C@H]2[C@@H]2CC[C@H]3C[C@H](O)CC[C@]3(C)[C@H]21 [Example 209] | 3.2 | – | Dissolved aminoester [1, 6]: 75 mg |
| CCCN(CCC)CC(=O)O[C@H]1C[C@]2(C)[C@@H](C(=O)CO)CC[C@H]2[C@@H]2CC[C@H]3C[C@H](O)CC[C@]3(C)[C@H]21 [Example 210] | 3.7 | – | Dissolved aminoester [1, 3]: 100 mg |
| CCN(CC)CC(=O)O[C@H]1C[C@]2(C)[C@@H](C(C)=O)CC[C@H]2[C@@H]2CC[C@H]3C[C@H](O)C=C[C@]3(C)[C@H]21 [Example 211] | 3.2 | – | Dissolved aminoester [1, 6]: 94 mg |
| CCCN(CCC)CC(=O)O[C@H]1C[C@]2(C)[C@@H](C(C)=O)CC[C@H]2[C@@H]2CC[C@H]3C[C@H](O)CC[C@]3(C)[C@H]21 [Example 212] | 3.6 | – | Dissolved aminoester [1, 7]: 73 mg |
| CCCN(CCC)CC(=O)O[C@H]1C[C@]2(C)[C@@H](C(C)=O)CC[C@H]2[C@@H]2CC[C@H]3C[C@H](O)CC[C@]3(C)[C@H]21 [Example 213] | 3.8 | – | Dissolved aminoester [1, 4]: 119 mg |
| CCCN(CCC)CC(=O)O[C@H]1C[C@]2(C)[C@@H](C(C)=O)CC[C@H]2[C@@H]2CC[C@H]3C[C@H](O)CC[C@]3(C)[C@H]21 [Example 214] | 3.52 | – | Dissolved aminoester [1, 4]: 115 mg |
| CCCN(CCC)CC(=O)O[C@H]1C[C@]2(C)[C@@H](C(C)=O)CC[C@H]2[C@@H]2CC[C@H]3C[C@H](O)CC[C@]3(C)[C@H]21 [Example 215] | 3.63 | – | Dissolved aminoester [1, 4]: 111 mg |
| CCCN(CCC)CC(=O)O[C@H]1C[C@]2(C)[C@@H](C(C)=O)CC[C@H]2[C@@H]2CC[C@H]3C[C@H](O)CC[C@]3(C)[C@H]21 [Example 216] | 3.58 | – | Dissolved aminoester [1, 4]: 116 mg |
| CCCN(CCC)CC(=O)O[C@H]1C[C@]2(C)[C@@H](C(C)=O)CC[C@H]2[C@@H]2CC[C@H]3C[C@H](O)CC[C@]3(C)[C@H]21 [Example 217] | 3.53 | – | Dissolved aminoester [1, 4]: 76 mg |
